The record followed here is patent publication US4051252A, “3-Aminoindazole-1 and 2-carboxylic acid derivatives” (Bayer Aktiengesellschaft, priority 1974, dated 1977).

One data set has as its system tails of rats. Kind of data set: Tail Flick Test (analgesic action). In kind it is in vivo. The conditions noted are these: Rattus norvegicus; oral, male rats; reaction time of 50% of animals lengthened to at least 20 seconds. The text has this:
Analgesic action can be observed in the tail flick test on the tails of rats in which the tail of male rats is irradiated with a focused heat ray. In this test, untreated animals react after an average irradiation time of 5.1±0.8 seconds (reaction time) by drawing away the tail. Under the influence of analgesically active compounds, this reaction time becomes longer. Active compounds which after administration prolong the reaction time of the animals to at least 20 seconds are considered to be analgesically active. Five animals are employed per dose. The ED50 is the dose which on average lengthens the reaction time of 50% of the animals employed to at least 20 seconds [see generally Wolff et al., J. Clin. Invest., 19, 659-680 (1940)].

Data set [1] concerns rats. The data set is described as follows: Yeast Antipyretic Test. To be noted: oral, raised body temperature lowered by 1° C in 50% of animals. The format is in vivo, rat. The procedure:
Antipyretic action can be observed in rats to which a beer yeast suspension has been administered subcutaneously. The body temperature is measured rectally before and 16 hours after administration of the beer years. The substance to be tested is administered orally to groups of 5 rats in which the body temperature has risen by at least 1° C. Thereafter, the temperature drop is measured rectally with a drop in the body temperature of at least 1° C being assessed as an antipyretic effet. The Ed50 is the dose at which, in 50% of the animals employed, the raised body temperature is lowered by 1° C upon administration of the active substance according to the invention.

The nature of data set [2]: Acute Toxicity (oral, mouse). To be noted: in vivo. An excerpt: The pharmacological properties can be conveniently observed in recognized in vivo models.
In a further data set the test system is paw of rats. Kind of data set: Carrageenin Anti-inflammatory Test (carrageenin edema on the paw of rats). In kind it is in vivo, rat. The conditions noted are these: one hour before carrageenin, measured 2 1/2 and 3 hours after carrageenin; for ED50: Rattus norvegicus, po. As to the method:
The anti-inflammatory (antiphlogistic and anti-edematous) action of the compounds can be conveniently observed by the inhibition of carrageenin edema on the paw of rats. In this test, a reference measurement on the normal paws of rats is carried out half an hour before and half an hour after oral administration of the test compound, using an antiphlogmeter. One hour after administration of the substance, the edema is started by injecting a carrageenin solution into the planta pedis of one hind paw at 21/2 hours and 3 hours after the carrageenin injection, the effect on the edematous paw is measured. The relative paw volume is expressed as a percentage of the reference measurement (=100%). The ED50 is the dose at which, in 50% of the animals employed per dose, the difference between the relative paw volume of the treated animals and the relative paw volume of the 10 control groups is 100.

The test system of data set [3] is rats. The data set is described as follows: Phenylquinone Writhing Test (analgesic activity). The format is in vivo. To be noted: Rattus norvegicus, oral, 60 minutes before phenylquinone i.p., writhing reduced to half of control. The procedure:
Analgesic activity can also be observed in the phenylquinone writhing test in which 100 μg of phenylquinone, dissolved in 0.5 ml of 5% strength alcohol, are injected intraperitoneally into rats. A few minutes after administration, the animals show the characteristic writhing reaction, which consists of the animals showing extreme backward extension of the hind paws, flexing the back and lifting the tail. At the same time, wave-like contractions frequently pass over the abdominal muscles. The inhibition of this writhing syndrome is assessed to be an analgesic effect. The substance to be investigated is administered 30 minutes (in the case of subcutaneous administration) or 60 minutes (in the case of oral administration) before the injection of phenylquinone. Five animals are employed per compound and per dose. The ED50 is the dose at which the number of writhing reactions in the animals employed is on average reduced to half that of the control group [see generally: Siegmung et al., Proc. Soc. exp. Biol. Med. 95, 729-731 (1957)].

As for `CCNC(=O)n1nc(N)c2cc(C(F)(F)F)ccc21` [3-amino-5-trifluoromethylindazole-1-carboxylic acid ethylamide], the results for the ED50 with tails of rats and with rats [1] were 53 mg/kg and 51 mg/kg, respectively. For the same compound, the LD50 in data set [2] is > 1000 mg/kg.
Regarding `CN(C)C(=O)n1nc(NC=O)c2ccc(C(F)(F)F)cc21` [3-formylamino-6-trifluoromethyl-1-carboxylic acid dimethylamide], in the data set with paw of rats, the “ED50 (oral), Carrageenin Anti-inflammatory Test” value is 92 (44-216) mg/kg.
In the data set with rats [3], `CCOC(=O)n1nc(N)c2cc(C(F)(F)F)ccc21` [3-amino-5-trifluoromethylindazole-1-carboxylic acid ethyl ester] yielded an ED50 of 1 mg/kg. Further, the LD50 in data set [2] is > 5000 mg/kg.
Compound `CN(C)C(=O)n1nc(NC=O)c2cc(C(F)(F)F)ccc21` [3formylamino-5-trifluoromethylindazole-1-carboxylic acid dimethylamide] showed a median effective dose (ED50) in the data set with rats [1] of 14 mg/kg. Also, the LD50 in data set [2] was > 1000 mg/kg.
The corresponding values for `CN(C)C(=O)n1nc(N)c2ccc(Cl)cc21` [3-amino-6-chloroindazole-1-carboxylic acid-dimethylamide] are 41 mg/kg and > 1000 mg/kg.
As to `CCOC(=O)n1nc(N(C)C)c2ccc(Cl)cc21` [3-dimethylamino-6-chloroindazole-1-carboxylic acid ethyl ester], the 50% effective dose (ED50) in the data set on rats [1] is 5.2 mg/kg; in the data set with rats [3], 17 mg/kg. In data set [2], the LD50 is > 5000 mg/kg.
For the compound `CCCCOC(=O)n1nc(N)c2ccc(Cl)cc21` [3-amino-6-chloroindazole-1-carboxylic acid n-butyl ester], the LD50 in data set [2] was > 1000 mg/kg. The ED50 in the data set on paw of rats stood at 67 mg/kg.
As for `COC(=O)n1nc(N)c2ccc(Cl)cc21` [3-amino-6-chloroindazole-1-carboxylic acid methyl ester], the ED50 in the data set with tails of rats was 30 mg/kg; in the data set with rats [1] it was ~20 mg/kg; in the data set on rats [3], ~10 mg/kg; with paw of rats, ~40 mg/kg. For the same compound, the LD50 in data set [2] was > 1000 mg/kg.
`CCOC(=O)n1nc(N)c2ccc(C(F)(F)F)cc21` [3-amino-6-trifluoromethylindazole-1-carboxylic acid ethyl ester]: the results for the ED50 in the data set on tails of rats and with rats [1] were 53 mg/kg and ~50 mg/kg, respectively.
With `COC(=O)n1nc(N)c2cc(C(F)(F)F)ccc21` [3-amino-5-trifluoromethylindazole-1-carboxylic acid methyl ester], the ED50 in the data set with tails of rats is 41 mg/kg; in the data set with rats [1], ~50 mg/kg.
For the compound `CCOC(=O)n1nc(N)c2ccccc21` [3-aminoindazole-1-carboxylic acid ethyl ester], the LD50 in data set [2] is ~3000 mg/kg. In addition, in the data set on paw of rats, the median effective dose (ED50) was ~47 mg/kg.
On to `CCOC(=O)n1nc(N)c2ccc(Cl)cc21` [3-amino-6-chloroindazole-1-carboxylic acid ethyl ester], for which, in data set [2], the LD50 was ~2000 mg/kg. For the same compound, in the data set with paw of rats, the ED50 is ~77 mg/kg and the “ED50 (oral), Carrageenin Anti-inflammatory Test” value was 68 (44-138) mg/kg.
`CN(C)C(=O)n1nc2cc(Cl)ccc2c1N` [3-amino-6-chloroindazole-2-carboxylic acid dimethylamide]: the ED50 in the data set with rats [1] was 23 mg/kg; in the data set on rats [3], 17 mg/kg.
Regarding `Nc1n[nH]c2ccc(C(F)(F)F)cc12` [3-amino-5-trifluoromethylindazole, reference compound], the values for the ED50 in the data set on tails of rats, in the data set with rats [1] and in the data set with rats [3] were 67 mg/kg, 48 mg/kg and 61 mg/kg, respectively. The compound also yielded an LD50 in data set [2] of 228 mg/kg.
